# What was measured:
# [1] = Capsule perfume leakage in heavy-duty liquid (HDL) detergent, headspace SPME GC/MS; format: physicochemical
# Method: The testing of capsule leakage in liquid compositions (e.g., liquid fabric enhancer/“LFE” compositions and/or heavy-duty liquid/“HDL” detergents) is performed as follows. […] The 1 gram aliquot in the 7 ml vial is then mixed on a stirring plate for 24 h at 500 rpm, thereby ensuring that the capsules are broken by the grinding action of the stir bar against the bottom of the 7 ml vial. Optical microscopy can be used to verify that no more intact capsules remain. In case such capsules are found, the step is to repeated for an additional 24 h, or until all or almost all capsules are broken. Then, the formulation containing broken capsules is introduced into GC vials in a similar manner as for step (a). This yields total oil samples. It is to be noted that the capsule sample and the total oil sample are not analyzed on the same day, as there is a need to prepare the total oil sample after the capsule sample has been removed from storage. […] The perfume oil composition formulated herein is representative of the perfume oil composition that is present in the slurry. Then the free oil formulation is introduced into GC vials in a similar manner as for step (a). This yields reference samples, which must be used when analyzing both the capsule sample and the total oil sample. […] Two headspace vials are prepared for each sample. The sealed headspace vials are then allowed to equilibrate. […] After equilibrating, the samples are analyzed by GC/MS. […] The perfume composition is analyzed by fast GC/MS in full scan mode. Ion extraction of the specific mass for each component is obtained. The leakage is calculated as follows, separately for the capsule sample and total oil sample, where “Area” denotes the area under the chromatogram peak corresponding to the PRM of interest: Once calculated for all PRMs for both the total oil sample and the capsule sample, the corrected PRM leakage can be calculated using the following formula: Once the corrected PRM leakage has been calculated for all PRMs, the Average leakage can be found by taking the arithmetic mean of each corrected PRM leakage. […] The resulting products are stored for one week at 35° C. At the end of the storage period, samples of each product composition are analyzed for perfume leakage out of the capsule using headspace analysis. The data is reported as a percentage, determined by comparing the amount of the individual perfume raw materials found in the headspace to the amount originally provided to the capsules.
# [2] = Capsule perfume leakage in liquid fabric enhancer (LFE), headspace SPME GC/MS; format: physicochemical
# Method: The testing of capsule leakage in liquid compositions (e.g., liquid fabric enhancer/“LFE” compositions and/or heavy-duty liquid/“HDL” detergents) is performed as follows. […] The 1 gram aliquot in the 7 ml vial is then mixed on a stirring plate for 24 h at 500 rpm, thereby ensuring that the capsules are broken by the grinding action of the stir bar against the bottom of the 7 ml vial. Optical microscopy can be used to verify that no more intact capsules remain. In case such capsules are found, the step is to repeated for an additional 24 h, or until all or almost all capsules are broken. Then, the formulation containing broken capsules is introduced into GC vials in a similar manner as for step (a). This yields total oil samples. It is to be noted that the capsule sample and the total oil sample are not analyzed on the same day, as there is a need to prepare the total oil sample after the capsule sample has been removed from storage. […] The perfume oil composition formulated herein is representative of the perfume oil composition that is present in the slurry. Then the free oil formulation is introduced into GC vials in a similar manner as for step (a). This yields reference samples, which must be used when analyzing both the capsule sample and the total oil sample. […] Two headspace vials are prepared for each sample. The sealed headspace vials are then allowed to equilibrate. Samples reach equilibrium after 3 hours at room temperature, but can be left to sit longer without detriment or change to the results, up until 24 hours after sealing the headspace vial. After equilibrating, the samples are analyzed by GC/MS. […] The perfume composition is analyzed by fast GC/MS in full scan mode. Ion extraction of the specific mass for each component is obtained. The leakage is calculated as follows, separately for the capsule sample and total oil sample, where “Area” denotes the area under the chromatogram peak corresponding to the PRM of interest: Once calculated for all PRMs for both the total oil sample and the capsule sample, the corrected PRM leakage can be calculated using the following formula: Once the corrected PRM leakage has been calculated for all PRMs, the Average leakage can be found by taking the arithmetic mean of each corrected PRM leakage. […] The resulting products are stored for one week at 35° C. At the end of the storage period, samples of each product composition are analyzed for perfume leakage out of the capsule using headspace analysis. The data is reported as a percentage, determined by comparing the amount of the individual perfume raw materials found in the headspace to the amount originally provided to the capsules.
# [3] = PRM of Perfume 1 out of Comparative Example 5-1 capsules (polyacrylate shell)
# [4] = PRM of Perfume 1 out of Comparative example 5-2 capsules (per EP2500087B1)
# [5] = PRM of Perfume 1 out of Comparative example 5-3 capsules (per WO2010013250A2)
# [6] = PRM of Perfume 1 out of Example 5-1 capsules (silica shell)
# [7] = PRM of Perfume 1 out of Comparative Example 4-1 capsules (polyacrylate shell), LFE Composition 1, 0.25 wt % perfume
# [8] = PRM of Perfume 1 out of Comparative Example 6-1 capsules (no second shell component), LFE Composition 1
# [9] = PRM of Perfume 1 out of Comparative Example 10-1 capsules (per EP2500087B1), LFE Composition 1
# [10] = PRM of Perfume 1 out of Comparative Example 10-2 capsules (per WO2010013250A2, with IPM), LFE Composition 1
# [11] = PRM of Perfume 1 out of Example 2, Sample A capsules, LFE Composition 1 (Ester Quat 1)
# [12] = PRM of Perfume 1 out of Example 2, Sample A capsules, LFE Composition 2 (Ester Quat 2)
# [13] = PRM of Perfume 1 out of Example 2, Sample A capsules, LFE Composition 3 (Ester Quat 3)
# [14] = PRM of Perfume 1 out of Example 4-1 capsules (silica shell), LFE Composition 1, 0.25 wt % perfume
# [15] = PRM of Perfume 1 out of Example 6-1 capsules (w/ second shell component), LFE Composition 1
# [16] = PRM of Perfume 1 out of Example 10-1 capsules (Sample F, Perfume 1/IPM 40/60), LFE Composition 1
# [17] = PRM of Perfume 1 out of Example 10-2 capsules (Sample A), LFE Composition 1
# [18] = PRM of Perfume 3 out of Capsule Sample D, LFE Composition 1
# [19] = PRM of Perfume 2 out of Capsule Sample C, LFE Composition 1
Compound,"Leakage (as %) after 1 week at 35° C. [1, 3]","Leakage (as %) after 1 week at 35° C. [1, 4]","Leakage (as %) after 1 week at 35° C. [1, 5]","Leakage (as %) after 1 week at 35° C. [1, 6]","Leakage (as %) after 1 week at 35° C. [2, 7]","Leakage (as %) after 1 week at 35° C. [2, 8]","Leakage (as %) after 1 week at 35° C. [2, 9]","Leakage (as %) after 1 week at 35° C. [2, 10]","Leakage (as %) after 1 week at 35° C. [2, 11]","Leakage (as %) after 1 week at 35° C. [2, 12]","Leakage (as %) after 1 week at 35° C. [2, 13]","Leakage (as %) after 1 week at 35° C. [2, 14]","Leakage (as %) after 1 week at 35° C. [2, 15]","Leakage (as %) after 1 week at 35° C. [2, 16]","Leakage (as %) after 1 week at 35° C. [2, 17]","Leakage (as %) after 1 week at 35° C. [2, 18]","Leakage (as %) after 1 week at 35° C. [2, 19]",further results
CC(=O)O[C@@H]1C[C@H]2CC[C@]1(C)C2(C)C (racemic) [iso-Bornyl acetate],1%,105%,102%,31%,4%,5%,89%,92%,1.6%,0.8%,1.0%,8%,9%,19%,9%,8%,,
"CC=CC(=O)C1C(C)C=CCC1(C)C (centres unmarked) [1-(2,6,6-trimethyl-1-cyclohex-3-enyl)but-2-en-1-one]",,,,,,,,,,,,,,,,5%,4%,
"C=CCCC(=O)C1=CCCC(C)(C)C1 [1-(5,5-dimethyl-1-cyclohexenyl)pent-4-en-1-one]",,,,,,,,,,,,,,,,2%,2%,
"CC1=CC(C)C(C=O)CC1 (centres unmarked) [2,4-dimethylcyclohex-3-ene-1-carbaldehyde]",12%,104%,101%,31%,31%,94%,94%,96%,2.1%,1.1%,1.6%,7%,8%,22%,8%,,12%,
"CC(=O)C(C)=CC1C(C)=CCCC1(C)C (centres unmarked) [3-Methyl-4-(2,6,6-trimethyl-2cyclohexen-1-yl)-3-buten-2-one]",,,,,,,,,,,,,,,,6%,,
"CCC(=O)OC1C=CC2C3CCC(C3)C12 (centres unmarked) [3a,4,5,6,7,7a-hexahydro-1H-4,7-methanoinden-1-yl propanoate]",,,,,,,,,,,,,,,,,4%,
CC(=O)OC1CCCCC1C(C)(C)C (centres unmarked) [(2-tert-butylcyclohexyl) acetate],1%,105%,101%,33%,4%,5%,91%,92%,2.2%,1.1%,1.3%,10%,11%,20%,11%,,,
CC(=O)OC1CCC(C(C)(C)C)CC1 (centres unmarked) [(4-tert-butylcyclohexyl) acetate],0%,108%,100%,27%,3%,4%,85%,91%,0.1%,0.1%,0.7%,6%,7%,15%,7%,,,
C=CCOC(=O)CCCCC [Allyl caproate],,,,,,,,,,,,,,,,9%,,
CC(=O)/C=C/C1C(C)=CCCC1(C)C (stereo not drawn) [Alpha-ionone],,,,,,,,,,,,,,,,,,"Leakage (as %) after 1 week at 35° C. ([2]; PRM of Perfume 4 out of Comparative Example 9-1 capsules (per EP3078415A), LFE Composition 1): 58%; Leakage (as %) after 1 week at 35° C. ([2]; PRM of Perfume 4 out of Comparative Example 9-2 capsules (per EP3078415A, additional TEOS), LFE Composition 1): 69%; Leakage (as %) after 1 week at 35° C. ([2]; PRM of Perfume 4 out of Example 9-1 capsules (Sample E), LFE Composition 1): 15%"
CC(C)=CCCC(C)CCO (centres unmarked) [Citronellol],,,,,,,,,,,,,,,,4%,,
c1ccc(Oc2ccccc2)cc1 [Diphenyl oxide],,,,,,,,,,,,,,,,,4%,

# Source: patent publication US12630785B2, “Liquid fabric care compositions comprising capsules” (The Procter & Gamble Company, priority 2020, dated 2026)
